Reference: US6608082B1, “Treatment of erectile dysfunction using isoquinoline compound melanocortin receptor ligands” (Lion Bioscience AG, priority 1998, dated 2003)
Where two headings read alike, the source gives them in different places.

What was measured:
[1] = molecular target: T1, MCR-1 (Homo sapiens, UniProt Q01726); assay: Melanocortin receptor binding assay, competition with 125I-HP 467, HEK 293 cells expressing hMCR-1; conditions: for IC50: read-out: MC-1 IC50
T1 construct: expressed in transfected cells; host or cells: HEK 293
In short: (§1)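 Intact-cell competition binding, 2.5 hr at 37 °C, in PBS/10% calf serum/1 mM CaCl2; hMCR-4 cells at 4×10^3 per tube, hMCR-1 cells at 2×10^4 per tube. Filtration on BSA/CaCl2-soaked GF/B, cold 50 mM Tris pH 7.4 washes, scintillation count.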

[2] = molecular target: T2, MCR-4 (Homo sapiens, UniProt P32245); assay: Melanocortin receptor binding assay, competition with 125I-HP 467, HEK 293 cells expressing hMCR-4; conditions: read-out: MC-4 IC50
T2 construct: expressed in transfected cells; host or cells: HEK 293
In short: as §1

[3] = competition with 125I-HP 467, HEK 293 cells expressing MCR-1
[4] = competition with 125I-HP 467, HEK 293 cells expressing MCR-4
[5] = inhibition of binding of 125I-HP 467, HEK 293 cells expressing MCR-1
[6] = inhibition of binding of 125I-HP 467, HEK 293 cells expressing MCR-4
[7] = inhibition of binding of 125I-HP 467, HEK 293 cells expressing MCR-1, TRG 2414 library
[8] = inhibition of binding of 125I-HP 467, HEK 293 cells expressing MCR-4, TRG 2414 library

T1 sequence (Q01726 whole entry): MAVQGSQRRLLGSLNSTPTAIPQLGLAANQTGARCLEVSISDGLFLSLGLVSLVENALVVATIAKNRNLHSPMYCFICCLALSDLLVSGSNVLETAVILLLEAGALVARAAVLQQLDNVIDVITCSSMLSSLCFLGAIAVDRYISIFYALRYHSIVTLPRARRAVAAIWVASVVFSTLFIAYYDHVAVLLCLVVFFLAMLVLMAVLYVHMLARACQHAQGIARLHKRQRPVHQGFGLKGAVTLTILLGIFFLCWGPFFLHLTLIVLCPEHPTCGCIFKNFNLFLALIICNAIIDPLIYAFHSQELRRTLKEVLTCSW
T2 sequence (P32245 whole entry): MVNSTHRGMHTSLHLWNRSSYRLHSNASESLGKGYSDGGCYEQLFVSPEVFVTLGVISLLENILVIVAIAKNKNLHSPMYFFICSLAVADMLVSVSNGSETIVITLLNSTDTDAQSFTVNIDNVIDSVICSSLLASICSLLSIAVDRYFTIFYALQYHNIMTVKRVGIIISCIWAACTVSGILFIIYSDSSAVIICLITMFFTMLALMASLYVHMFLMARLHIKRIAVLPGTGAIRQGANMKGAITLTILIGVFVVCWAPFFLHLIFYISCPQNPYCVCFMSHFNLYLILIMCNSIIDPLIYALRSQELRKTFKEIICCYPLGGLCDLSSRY

Structure (SMILES)	IC50 [1, 5] [nM]	IC50 [2, 6] [nM]	other results
CCCCNC(CN)CCCN1Cc2ccccc2C(CN)C1c1ccc(-c2ccccc2)cc1 (stereo not drawn) [TRG 2411-147]	–	–	IC50 [1, 3]: 1260 nM; IC50 [2, 4]: 1190 nM
NCC(CCCN1Cc2ccccc2C(CN)C1c1ccc(-c2ccccc2)cc1)NCC1CCCCC1 (stereo not drawn) [TRG 2411-148]	–	–	IC50 [1, 3]: 960 nM; IC50 [2, 4]: 1960 nM
NCC(CCCN1Cc2ccccc2C(CN)C1c1ccc(-c2ccccc2)cc1)NCc1ccccc1 (stereo not drawn) [TRG 2411-149]	–	–	IC50 [1, 3]: 1170 nM; IC50 [2, 4]: 490 nM
CCNc1ccc(C2C(CNCCc3ccccc3)c3ccccc3CN2CCCC(CN)NCC)cc1 (stereo not drawn) [TRG 2411-152]	60	520	–
CCNc1ccc(C2C(CNCCc3ccccc3)c3ccccc3CN2CCCC(CN)NCCc2ccccc2)cc1 (stereo not drawn) [TRG 2411-155]	90	720	–
CCNc1ccc(C2C(CNCCc3ccccc3)c3ccccc3CN2CCCC(CN)NCCc2ccc(Br)cc2)cc1 (stereo not drawn) [TRG 2411-156]	120	660	–
CCNc1ccc(C2C(CNCCc3ccccc3)c3ccccc3CN2CCCC(CN)NCCc2ccc(OC)cc2)cc1 (stereo not drawn) [TRG 2411-157]	110	670	–
CCNc1ccc(C2C(CNCCc3ccccc3)c3ccccc3CN2CCCC(CN)NCc2ccccc2)cc1 (stereo not drawn) [TRG 2411-158]	100	410	–
CCNc1ccc(C2C(CNCCc3ccccc3)c3ccccc3CN2CCCC(CN)NCCC2CCCCC2)cc1 (stereo not drawn) [TRG 2411-162]	110	1220	–
CCNc1ccc(C2C(CNC3CCCCC3)c3ccccc3CN2CCCC(CN)NCC)cc1 (stereo not drawn) [TRG 2411-164]	180	4020	–
CCNc1ccc(C2C(CNC3CCCCC3)c3ccccc3CN2CCCC(CN)NCCc2ccc(Br)cc2)cc1 (stereo not drawn) [TRG 2411-167]	370	1110	–
CCNc1ccc(C2C(CNC3CCCCC3)c3ccccc3CN2CCCC(CN)NCCC2CCCCC2)cc1 (stereo not drawn) [TRG 2411-173]	140	1590	–
CCNc1ccc(C2C(CN)c3ccccc3CN2CCCC(CN)NCCc2ccc(Br)cc2)cc1 (stereo not drawn) [TRG 2411-180]	120	1060	–
CCNc1ccc(C2C(CN)c3ccccc3CN2CCCC(CN)NCc2ccc(OC)cc2)cc1 (stereo not drawn) [TRG 2411-184]	90	1610	–
CCNc1ccc(C2C(CN)c3ccccc3CN2CCCC(CN)NCCC2CCCCC2)cc1 (stereo not drawn) [TRG 2411-186]	30	580	effectiveness as MC receptor ligand ([1]; binding to MC receptors, Table 1): particularly effective MC receptor ligands
CCCCNc1ccc(C2C(CNCCc3ccccc3)c3ccccc3CN2CCCC(CN)NCC)cc1 (stereo not drawn) [TRG 2411-190]	190	210	–
CCCCNc1ccc(C2C(CNCCc3ccccc3)c3ccccc3CN2CCCC(CN)NCCCC)cc1 (stereo not drawn) [TRG 2411-191]	120	520	–
CCCCNc1ccc(C2C(CNCCc3ccccc3)c3ccccc3CN2CCCC(CN)N2CCCC2)cc1 (stereo not drawn) [TRG 2411-192]	70	880	–
CCCCNc1ccc(C2C(CNCCc3ccccc3)c3ccccc3CN2CCCC(CN)NCCc2ccccc2)cc1 (stereo not drawn) [TRG 2411-193]	150	1240	–
CCCCNc1ccc(C2C(CNCCc3ccccc3)c3ccccc3CN2CCCC(CN)NCCc2ccc(Br)cc2)cc1 (stereo not drawn) [TRG 2411-194]	240	1360	–
CCCCNc1ccc(C2C(CNCCc3ccccc3)c3ccccc3CN2CCCC(CN)NCCc2ccc(OC)cc2)cc1 (stereo not drawn) [TRG 2411-195]	160	1440	–

Structure (SMILES)	IC50 [1, 5] [nM]	IC50 [2, 6] [nM]	other results
CCCCNc1ccc(C2C(CNC3CCCCC3)c3ccccc3CN2CCCC(CN)NCc2ccc(OC)cc2)cc1 (stereo not drawn) [TRG 2411-212]	100	1930	–
CCCCNc1ccc(C2C(CNC3CCCCC3)c3ccccc3CN2CCCC(CN)NCCc2ccc3ccccc3c2)cc1 (stereo not drawn) [TRG 2411-213]	220	1950	–
CCCCNc1ccc(C2C(CN)c3ccccc3CN2CCCC(CN)NCC)cc1 (stereo not drawn) [TRG 2411-218]	70	9590	–
CCCCCNc1ccc(C2C(CNCCc3ccccc3)c3ccccc3CN2CCCC(CN)NC)cc1 (stereo not drawn) [TRG 2412-16]	90	1480	–
CCOc1ccc(C2C(CNCCc3ccccc3)c3ccccc3CN2CCCC(CN)NCc2ccccc2)cc1 (stereo not drawn) [TRG 2412-21]	170	230	–
CCCCOc1ccc(C2C(CNCCc3ccccc3)c3ccccc3CN2CCCC(CN)NC)cc1 (stereo not drawn) [TRG 2412-25]	160	1060	–
CCCCCc1ccc(C2C(CNCCc3ccccc3)c3ccccc3CN2CCCC(CN)NCc2ccccc2)cc1 (stereo not drawn) [TRG 2412-30]	620	1060	–
CCNc1ccc(C2C(CNCCc3ccccc3)c3ccccc3CN2CCCC(CN)NCCc2ccccc2)cc1 (stereo not drawn) [TRG 2413-9]	260	1340	–
COc1ccccc1CCNCC1c2ccccc2CN(CCCCC(CN)NCCc2ccccc2)C1c1ccc(Cl)cc1Cl (stereo not drawn) [TRG 2414-10]	–	–	IC50 [1, 7]: 2930 nM; IC50 [2, 8]: 4880 nM
COc1ccccc1CCNCC1c2ccccc2CN(CCCCC(CN)NCC(C)c2ccc(CC(C)C)cc2)C1c1ccc(Cl)cc1Cl (stereo not drawn) [TRG 2414-12]	–	–	IC50 [1, 7]: 11700 nM; IC50 [2, 8]: 34400 nM
NCC(N)CCCCN1Cc2ccccc2C(CNCCc2cccc(Cl)c2)C1c1ccc(Cl)cc1Cl (stereo not drawn) [TRG 2414-13]	–	–	IC50 [1, 7]: 2180 nM; IC50 [2, 8]: 1180 nM
NCC(CCCCN1Cc2ccccc2C(CNCCc2cccc(Cl)c2)C1c1ccc(Cl)cc1Cl)NCCc1ccccc1 (stereo not drawn) [TRG 2414-14]	–	–	IC50 [1, 7]: 3230 nM; IC50 [2, 8]: 2920 nM
NC[C@H](CCCCN1Cc2ccccc2C(CNCCc2cccc(Cl)c2)C1c1ccc(Cl)cc1Cl)NCc1ccccc1 (stereo partly drawn) [TRG 2414-15]	–	–	IC50 [1, 7]: 6410 nM; IC50 [2, 8]: 6930 nM
CC(C)Cc1ccc(C(C)CNC(CN)CCCCN2Cc3ccccc3C(CNCCc3cccc(Cl)c3)C2c2ccc(Cl)cc2Cl)cc1 (stereo not drawn) [TRG 2414-16]	–	–	MC-1 IC50 [1, 7]: no fit; IC50 [2, 8]: 33400 nM
COc1cccc(CNCC2c3ccccc3CN(CCCCC(N)CN)C2c2ccc(Cl)cc2Cl)c1 (stereo not drawn) [TRG 2414-17]	–	–	IC50 [1, 7]: 3080 nM; IC50 [2, 8]: 1630 nM
COc1cccc(CNCC2c3ccccc3CN(CCCCC(CN)NCCc3ccccc3)C2c2ccc(Cl)cc2Cl)c1 (stereo not drawn) [TRG 2414-18]	–	–	IC50 [1, 7]: 4970 nM; IC50 [2, 8]: 8220 nM
COc1cccc(CNCC2c3ccccc3CN(CCCCC(CN)NCc3ccccc3)C2c2ccc(Cl)cc2Cl)c1 (stereo not drawn) [TRG 2414-19]	–	–	IC50 [1, 7]: 3270 nM; IC50 [2, 8]: 7310 nM
COc1cccc(CNCC2c3ccccc3CN(CCCCC(CN)NCC(C)c3ccc(CC(C)C)cc3)C2c2ccc(Cl)cc2Cl)c1 (stereo not drawn) [TRG 2414-20]	–	–	IC50 [1, 7]: 27400 nM; IC50 [2, 8]: 38100 nM
COc1ccc(CNCC2c3ccccc3CN(CCCCC(N)CN)C2c2ccc(Cl)cc2Cl)cc1 (stereo not drawn) [TRG 2414-21]	–	–	IC50 [1, 7]: 1120 nM; IC50 [2, 8]: 1570 nM
COc1ccc(CNCC2c3ccccc3CN(CCCCC(CN)NCCc3ccccc3)C2c2ccc(Cl)cc2Cl)cc1 (stereo not drawn) [TRG 2414-22]	–	–	IC50 [1, 7]: 3560 nM; IC50 [2, 8]: 5020 nM
COc1ccc(CNCC2c3ccccc3CN(CCCCC(CN)NCc3ccccc3)C2c2ccc(Cl)cc2Cl)cc1 (stereo not drawn) [TRG 2414-23]	–	–	IC50 [1, 7]: 3190 nM; IC50 [2, 8]: 6140 nM

Continued, in another order:

IC50 [1, 5] [nM]	IC50 [2, 6] [nM]	Structure (SMILES)	other results
120	4540	CCNc1ccc(C2C(CNCCc3ccccc3)c3ccccc3CN2CCCC(N)CN)cc1 (stereo not drawn) [TRG 2411-150]	–
90	1780	CCNc1ccc(C2C(CNCCc3ccccc3)c3ccccc3CN2CCCC(CN)NC)cc1 (stereo not drawn) [TRG 2411-151]	–
80	590	CCCCNC(CN)CCCN1Cc2ccccc2C(CNCCc2ccccc2)C1c1ccc(NCC)cc1 (stereo not drawn) [TRG 2411-153]	–
100	350	CCNc1ccc(C2C(CNCCc3ccccc3)c3ccccc3CN2CCCC(CN)NCc2ccc(Cl)cc2)cc1 (stereo not drawn) [TRG 2411-159]	–
90	510	CCNc1ccc(C2C(CNCCc3ccccc3)c3ccccc3CN2CCCC(CN)NCc2ccc(OC)cc2)cc1 (stereo not drawn) [TRG 2411-160]	–
160	640	CCNc1ccc(C2C(CNCCc3ccccc3)c3ccccc3CN2CCCC(CN)NCCc2ccc3ccccc3c2)cc1 (stereo not drawn) [TRG 2411-161]	–
220	440	CCNc1ccc(C2C(CNC3CCCCC3)c3ccccc3CN2CCCC(CN)NCc2ccccc2)cc1 (stereo not drawn) [TRG 2411-169]	–
70	1430	CCNc1ccc(C2C(CN)c3ccccc3CN2CCCC(CN)NCCc2ccccc2)cc1 (stereo not drawn) [TRG 2411-179]	–
120	1050	CCCCNc1ccc(C2C(CNCCc3ccccc3)c3ccccc3CN2CCCC(CN)NCc2ccccc2)cc1 (stereo not drawn) [TRG 2411-196]	–
130	1340	CCCCNc1ccc(C2C(CNCCc3ccccc3)c3ccccc3CN2CCCC(CN)NCCC2CCCCC2)cc1 (stereo not drawn) [TRG 2411-200]	–
470	860	CCCCNc1ccc(C2C(CNC3CCCCC3)c3ccccc3CN2CCCC(CN)NCCc2ccc(Br)cc2)cc1 (stereo not drawn) [TRG 2411-208]	–
350	1330	CCCCNc1ccc(C2C(CNC3CCCCC3)c3ccccc3CN2CCCC(CN)NCCc2ccc(OC)cc2)cc1 (stereo not drawn) [TRG 2411-209]	–
100	2970	CCCCNc1ccc(C2C(CN)c3ccccc3CN2CCCC(CN)NCCCC)cc1 (stereo not drawn) [TRG 2411-219]	–
310	320	CCOc1ccc(C2C(CNCCc3ccccc3)c3ccccc3CN2CCCCC(CN)NC)cc1 (stereo not drawn) [TRG 2412-4]	–
270	1150	CCCCCNc1ccc(C2C(CNCCc3ccccc3)c3ccccc3CN2CCCC(CN)NCCc2ccccc2)cc1 (stereo not drawn) [TRG 2412-17]	–
1270	400	CNC(CN)CCCN1Cc2ccccc2C(CNCCc2ccccc2)C1c1ccc([N+](=O)[O-])cc1 (stereo not drawn) [TRG 2413-16]	–
